What was measured:
[1] = tested on: Hela cells expressing HU and TMTX resistance gene; experiment: Hydroxyurea and Trimetrexate cytotoxic assay: selective enrichment of transduced (GFP positive) Hela cells by FACS; type: cell-based; conditions: three days, FIG. 2
Experimental: Control and transduced Hela cells were incubated with HU and TMTX for 3 days, after which survival rate of both cell population were measured by FACS analysis. Hela cells were transduced with lentivector expressing GFP and the Hydroxyurea or Trimetrexate resistance genes. Three to five days after transduction, cell transduction efficiency was determined by measuring GFP fluorescence. Transduced Hela cells were treated with the appropriate concentration of cytotoxic compounds and survival rate were measured by FACS analysis. Next, the ability of either HU or TMTX to selectively enrich transduced Hela cells was evaluated by FACS. Hela cells were transduced as outlined above and then cultured in control media or media including 25 μM HU, 100 μM HU, 1 nM TMTX or 10 nM TMTX. After culture in the indicated conditions for three days, the proportion of transduced cells (GFP positive) versus non-transduced cells was determined by FACS and the results plotted.

[2] = tested on: GFP expressing blood cells; experiment: In vivo selective enrichment of blood cells expressing HU resistance gene after bone marrow transplantation; set-up: species or system C57/B16 mice
Experimental: FIG. 3: In vivo selective enrichment of blood cells expressing HU and TMTX resistance gene. Bone marrow transplantation experiments were performed in C57/b16 mice. Total bone marrow was obtained from large bones of C57/B16 mice and maintained for 24 h in IMDM medium supplemented with 100 ng/ml of SCF. Bone marrow cells were then transduced with 10^9 lentivector particles for 8 hours before being injected into the tail vein of irradiated C57/B16 mice. Six to eight weeks later, blood samples were taken and GFP expression was measured by FACS. After which mice were injected intraperitoneally with either HU or TMTX with initial doses of HU of 200, 500 and 1000 mg/kg per day and initial doses of TMTX of 10, 25, 50 mg/kg with 2 injections per week. GFP expressing blood cells were measured once a week. (A) Irradiated mice, transplanted with bone marrow cells and transduced with a lentivector expressing GFP and the hydroxyurea resistance (GFP-HU).
In order to more directly assess the ability of HU and TMTX to select cells in vivo studies were undertaken in mice injected with transduced cells. […] Six to eight weeks later, blood samples were taken and GPF expression was measured by FACS. […] GFP expressing blood cells were measured once a week.

Row | SMILES | selection of transduced cells (GFP positive versus non-transduced, FACS) ([1]; 25 μM HU and 100 μM HU) | transient increase in GFP-positive leukocytes ([2]; irradiated mice transplanted with bone marrow cells transduced with GFP-HU lentivector, hydroxyurea-treated, FIG. 3A) | circulating GFP positive cells ([2]; some treated animals, one week after HU injection, intraperitoneal, transient increase, FIG. 3) | selection of transduced cells (GFP positive versus non-transduced, FACS) ([1]; 10 nM TMTX (tested at 1 nM and 10 nM))
1 | NC(=O)NO [HU, Hydroxyurea] | modest selection | up to 8% | 5%-10% | 
2 | COc1cc(NCc2ccc3nc(N)nc(N)c3c2C)cc(OC)c1OC [TMTX, Trimetrexate] |  |  |  | significant selection

Reference: US20160010094A1, “TRANSGENIC CELL SELECTION” (UNIVERSITE DE GENEVE, priority 2013, published 2016)
